Results taken from PMC9616048, “Thermal proteome profiling reveals Haemonchus orphan protein HCO_011565 as a target of the nematocidal small molecule UMW-868” (Frontiers in Pharmacology, 2022).
“Also recorded” adds a separate entry of the source.

Legend:
H. contortus xL3s [1] = assay: Dose-response evaluation, xL3 motility; assay type: cell-based; conditions: Haemonchus contortus, 168 h, analog series; read-out: xL3 motility reduction (IC50 in µM)
Procedure: (§1) These evaluations were carried out to estimate the half-maximal inhibitory concentrations (IC50 values) for hit compounds against H. contortus xL3s. With reference to the two positive-control compounds (monepantel and moxidectin), IC50 values for compounds were estimated ([Preston et al., 2015]; [Taki et al., 2021a]) using two-fold serial dilution (in LB*; 9 points from 50 μM to 0.2 µM) in 96-well plates (cat. no. 3596; Corning) with larvae at a density of 300 H. contortus xL3s in 100 µl per well. Plates containing H. contortus xL3s were incubated at 38°C, 10% (v/v) CO2 and >90% relative humidity.
(§2) Compound concentrations were log10-transformed and fitted using a variable slope four-parameter equation, constraining the highest value to 100% employing a least squares (ordinary) fit model using GraphPad Prism software (v.9.1.2). Compounds were tested by three independent experiments in triplicate. A one-way analysis of variance (ANOVA) with a Tukey’s multiple comparison test or an unpaired t-test was used to establish statistically significant differences in larval motility or development.

[2] = system: H. contortus fourth-stage larvae (L4s) development; assay: Dose-response evaluation, L4 development; assay type: cell-based, Haemonchus contortus; conditions: Haemonchus contortus; 168 h, analog series; read-out: L4 development inhibition (IC50 in µM)
Procedure: as §1
as §2, with “The motility of H. contortus xL3s and L4 development were measured following 168 h of incubation with compound ([Taki et al., 2021a]). Compound concentrations” for “Compound concentrations”

eggs of H. contortus = assay: Egg hatch assay; assay type: cell-based; conditions: Haemonchus contortus, 48 h; read-out: Egg hatch inhibition (IC50 in µM)
Procedure: Compounds were also assessed for their effect on the hatching of eggs of H. contortus in vitro. To do this, eggs were isolated from the faeces from sheep with patent (30 day-) H. contortus infection by sucrose flotation ([Mes et al., 2007]). Eggs were suspended in H2O at a concentration of one egg per µl. The eggs were dispensed into wells (in triplicate; 100 eggs per well) and incubated with two-fold serial dilutions (9 points from 50 μM to 0.2 µM in H2O) of individual test or control compounds for 48 h at 27°C and >90% relative humidity; wells with no compound were also included. The numbers (percentages) of eggs from which first-stage larvae (L1s) hatched were counted using a light microscope (M80, Leica) at a 40-times magnification. With reference to positive-control compounds (i.e., monepantel and moxidectin), IC50 values of compounds were calculated.

[3] = Cellular toxicity in HepG2 cells (crystal violet); assay type: cell-based, human; conditions: human, HepG2 human hepatoma cells; HepG2, 48 h; read-out: Cytotoxicity (48 h) CC50
Procedure: (§3) The toxicities of compounds on cell and mitochondria were assessed to estimate their half-maximal cytotoxic concentrations (CC50) and half-maximal mitotoxic concentrations (MC50), respectively. HepG2 human hepatoma cells were seeded into wells of a 96-well plate at a density of 5.5 × 10^4 cells per well in 80 µl of Dulbecco’s modified eagle medium (DMEM; with GlutaMax™ cat. no. 10566016 or 4 mM L-glutamine cat. no. 11966025; Thermo Fisher Scientific), supplemented with 25 mM D-glucose (cytotoxicity) or D-galactose (mitotoxicity), 10% (v/v) inactivated foetal bovine serum (iFBS), 100 IU/ml of penicillin, 100 μg/ml of streptomycin and 0.25 μg/ml of amphotericin B (designated DMEM*). Cells were allowed to adhere for 16 h at 37°C and 5% (v/v) CO2 at > 90% relative humidity, then, incubated for 48 h with individual, serially-diluted compounds (two-fold serial dilution in DMEM*; […]) in a final volume of 100 µl. For the assessment of toxicity on mitochondria, cells were starved of serum (DMEM* without iFBS) for 4 h prior to the 48 h-incubation with compounds ([Swiss and Will, 2011]; [Kamalian et al., 2015]). Two positive control compounds, doxorubicin (cytotoxic control) and M-666 (mitotoxic control) were each added to three individual wells in each 96-well plate at a single concentration of 10 µM. DMEM* + 0.25% (v/v) DMSO was added to 12 wells in each plate as negative controls. Monepantel and moxidectin were also serially diluted — prepared in the same manner as test compounds — and used as (“non-toxic”) reference compounds. After 48 h of incubation, cell viability was determined by the crystal violet staining method ([Śliwka et al., 2016]). The absorbance (595 nm) of treated cells was normalised with reference to the negative control (100% viability). To determine the CC50 and MC50 values, compound concentrations were log10-transformed, baseline-corrected using a respective positive control (doxorubicin or M-666) and fitted using a variable slope four-parameter equation with a least squares (ordinary) fit model using GraphPad Prism software (v.9.1.2). Compounds and controls were tested in triplicate.

[4] = system: mitochondria of HepG2 human hepatoma cells; assay: Mitochondrial toxicity in HepG2 cells (galactose medium); assay type: cell-based; conditions: HepG2, 48 h
Procedure: as §3

H. contortus xL3s [5] = assay: Cell lethality in xL3s (Sytox Green staining); assay type: cell-based, Haemonchus contortus
Procedure: Fluorescence staining was employed to assess the ability of UMW-868 to reduce the viability of H. contortus. The xL3s were dispensed in 96-well plates at a density of 300 xL3 per well, and incubated with compounds UMW-868 or A-3155, non-active analogs of UMW-868, at 50 μM at 38°C, 10% (v/v) CO2 and >90% relative humidity. After 90 h of incubation, H. contortus xL3s were stained with Sytox Green nucleic acid stain (Thermo Fisher Scientific) at the final concentration of 1 µM in LB* in the same 96-well plates and incubated for 1 h at 38°C and 10% (v/v) CO2 with >90% relative humidity. Following the incubation, the viability of larvae was evaluated by measuring the relative fluorescent units (RFU) of xL3s using an Omega FLUOstar microplate reader (BMG Labtech), with excitation and emission wavelengths set at 485 nm and 520 nm, respectively. The 96-well plates containing the stained larvae were returned to the incubator for further 78 h; after a total of 168 h of compound exposure, the stained larvae were examined under an inverted fluorescence microscope (DM IL, Leica) equipped with a green fluorescent protein filter (470/500/525 […]; Leica), and imaged using Leica Application Suite software (Leica).

[6] = system: exsheathed third-stage larvae (xL3s) of H. contortus; assay: High throughput screen, xL3 motility (infrared light beam-interference); assay type: cell-based; conditions: Haemonchus contortus, 90 h, read-out: Motility reduction at 90 h (%)
Procedure: An established platform was used for compound screening ([Taki et al., 2021a]). Using a semi-automated liquid handling robot (VIAFLO ASSIST PLUS, Integra Biosciences), compounds were individually diluted to […] in LB* containing 0.2% (v/v) DMSO and then dispensed in 20 µl into the wells of sterile 384-well flat bottom microtitre plates (cat. no. 3680; Corning); 320 compounds were arrayed on each plate, with 16 wells being negative controls (with LB* + 0.2% DMSO) and four wells containing each monepantel (Zolvix; Elanco), moxidectin (Cydectin; Virbac), monepantel + abamectin (Zolvix Plus; Elanco) and compound MIPS-0018666 (abbreviated here as M-666) ([Le et al., 2018]) as positive controls (20 µM). Following the dilution and dispensing of compounds into plates, 80 H. contortus xL3s in 20 μl of LB* were transferred to individual wells; after this step, the final concentrations were 20 µM of test- or positive-control compound, and 0.2% of DMSO. During dispensing, xL3s were maintained in a homogenous suspension using a constant stream of bubbles produced employing an aquarium pump (H2Pro). Plates containing H. contortus xL3s were incubated at 38 °C, 10% (v/v) CO2 and >90% relative humidity.
After 90 h of incubation with compounds (20 μM), H. contortus xL3s motility was measured for 15 min in individual wells of each plate by infrared light beam-interference ([Simonetta and Golombek, 2007]) using a WMicroTracker ONE instrument (Phylumtech). Raw data captured were normalised against measurements obtained for the positive (monepantel) and negative (LB* + 0.2% DMSO) controls to remove plate-to-plate variation by calculating the percentage of motility using the program GraphPad Prism (v.9.1.2; GraphPad Software). A compound was considered active (“hit”) if it reduced larval motility by ≥ 70%. To continually assess the performance of the screening assay, the Z′-factor ([Zhang et al., 1999]) was calculated (using data for the DMSO and the M-666 controls) for individual plates (n = 43) and was consistently ≥0.7; reliable assays achieve a Z′-factor of between 0.5 and 1. The signal to background (S/B) ratio (for the same controls) ([Sui and Wu, 2007]) was consistently >200.

[7] = system: H. contortus xL3 to L4 development; assay: High throughput screen, larval development and phenotype at 168 h; assay type: cell-based, Haemonchus contortus; conditions: Haemonchus contortus, development to L4
Procedure: Following the measurement of xL3 motility, plates were incubated again for 78 h (i.e., a total of 168 h) under the same conditions. Thereafter, 40 µl of 1% (v/v) iodine were added to individual wells, and worms examined using a light microscope (M80, Leica) at 60-times magnification to assess larval development, based on the presence/absence of a well-developed pharynx ([Sommerville, 1966]), and/or phenotypic alterations with respect to untreated xL3s.

Row | IC50 (H. contortus xL3s [1]) [µM] | IC50 (eggs of H. contortus) [µM] | Structure (SMILES) | IC50 [2] [µM] | CC50 at 48 h [3] [µM] | Mitotoxicity (48 h) MC50 [4] [µM] | lethality / viability of xL3s (in words) (H. contortus xL3s [5]; 90 h) | dead cells detected microscopically in xL3s (Sytox Green) (H. contortus xL3s [5]; 168 h of exposure) | inhibition at 20 µM [6] [%] | inhibition at 20 µM [7] [%]
1 | 12.1 | 13.1 | CCCc1ccc(-c2nc(-c3ccccc3)no2)cc1 [Compound A-3126] | 50 | > 50 | > 50.0 | – | – | – | –
2 | 7.8 | > 50 | CCOc1ccc(-c2nc(-c3cccs3)no2)cc1 [Compound A-3134] | > 50 | > 50 | > 50.0 | – | – | – | –
3 | 4.8 | 7.5 | CCCc1ccc(-c2nc(-c3ccc(C)cc3)no2)cc1 [Compound A-3136] | 12.5 | > 50 | > 50.0 | – | – | – | –
4 | – | – | NC(=O)c1ccc(-c2nc(-c3cccs3)no2)cc1 [Compound A-3155] | – | – | – | remained viable; also recorded: non-lethal | no dead cells were detected | – | –
5 | 4 | > 50 | FC(F)Oc1ccc(-c2nc(-c3cccs3)no2)cc1 [Compound A-4340, 5-(4-(Difluoromethoxy)phenyl)-3-(thiophen-2-yl)-1,2,4-oxadiazole] | 25 | > 50 | > 50.0 | – | – | – | –
6 | > 50 | > 50 | c1ccc(-c2nc(-c3cccs3)no2)cc1 [Compound A-4347, 5-Phenyl-3-(thiophen-2-yl)-1,2,4-oxadiazole] | > 50 | > 50 | > 50.0 | – | – | – | –
7 | 9.8 | > 50 | FC(F)(F)Oc1ccc(-c2nc(-c3cccs3)no2)cc1 [Compound A-6316, 3-(Thiophen-2-yl)-5-(4-(trifluoromethoxy)phenyl)-1,2,4-oxadiazole] | > 50 | > 50 | > 50.0 | – | – | – | –
8 | 1.4 | 38 | CCCc1ccc(-c2nc(-c3ccc(OC)cc3)no2)cc1 [Compound A-6318, 3-(4-Methoxyphenyl)-5-(4-propylphenyl)-1,2,4-oxadiazole] | 1.6 | > 50 | 48.2 | – | – | – | –
9 | 1.4 | > 50 | FC(F)Oc1ccc(-c2nc(-c3ccc(C(F)(F)F)cc3)no2)cc1 [Compound A-6325, 5-(4-(Difluoromethoxy)phenyl)-3-(4-(trifluoromethyl)phenyl)-1,2,4-oxadiazole] | 3.1 | > 50 | 36.3 | – | – | – | –
10 | 1.6 | > 50 | CCCc1ccc(-c2nc(-c3ccc(C(F)(F)F)cc3)no2)cc1 [Compound A-6501] | 6.3 | > 50 | > 50.0 | – | – | – | –
11 | – | – | CCOC(=O)c1ccc(Oc2ccc(Cl)cc2Cl)c([N+](=O)[O-])c1 [MBHF-hit36, ethyl 4-(2,4-dichlorophenoxy)-3-nitrobenzoate] | – | – | – | – | – | 70.2 | < 80
12 | > 50 | > 50 | c1ccc(-c2noc(-c3cccs3)n2)cc1 [Tioxazafen, 3-Phenyl-5-(thiophen-2-yl)-1,2,4-oxadiazole, reference compound] | > 50 | > 50 | > 50.0 | – | – | – | –
